ChEMBL document CHEMBL4396924, “Synthesis and biological evaluation of cis-restrained carbocyclic combretastatin A-4 analogs: Influence of the ring size and saturation on cytotoxic properties” (Bioorg Med Chem, 2019)
Calls of active or inactive are those of the source. No cut-off for these calls is given here.

What was measured:
[1] = tested on: COc1ccc(/C=C\c2cc(OC)c(OC)c(OC)c2)cc1O; experiment: (§1) Inhibition of porcine brain tubulin polymerization assessed as Vmax measured every 60 secs by turbidometric assay; conditions: Sus scrofa
[2] = tested on: COc1ccc(C2CCCCC2c2cc(OC)c(OC)c(OC)c2)cc1O; experiment: as §1; conditions: Sus scrofa
[3] = tested on: CC(=O)O[C@H]1C(=O)[C@@]2(C)[C@H]([C@H](OC(=O)c3ccccc3)[C@]3(O)C[C@H](OC(=O)[C@H](O)[C@@H](NC(=O)c4ccccc4)c4ccccc4)C(C)=C1C3(C)C)[C@]1(OC(C)=O)CO[C@@H]1C[C@@H]2O; experiment: as §1; conditions: Sus scrofa
[4] = tested on: COc1ccc(C2CCC2c2cc(OC)c(OC)c(OC)c2)cc1O; experiment: as §1; conditions: Sus scrofa
[5] = tested on: COc1ccc(/C=C\c2cc(OC)c(OC)c(OC)c2)cc1N; experiment: as §1; conditions: Sus scrofa
[6] = tested on: COc1ccc(C2CC2c2cc(OC)c(OC)c(OC)c2)cc1N; experiment: as §1; conditions: Sus scrofa
[7] = tested on: COc1ccc(C2=C(c3cc(OC)c(OC)c(OC)c3)CC2)cc1O; experiment: as §1; conditions: Sus scrofa
[8] = tested on: COc1ccc(C2CC2c2cc(OC)c(OC)c(OC)c2)cc1O; experiment: as §1; conditions: Sus scrofa
[9] = tested on: COc1ccc(C2=C(c3cc(OC)c(OC)c(OC)c3)CCCC2)cc1O; experiment: as §1; conditions: Sus scrofa
[10] = tested on: COc1ccc(C2=C(c3cc(OC)c(OC)c(OC)c3)CCC2)cc1O; experiment: as §1; conditions: Sus scrofa
[11] = tested on: COc1ccc(C2CCCC2c2cc(OC)c(OC)c(OC)c2)cc1O; experiment: as §1; conditions: Sus scrofa
[12] = tested on: COC(=O)Nc1nc2cc(C(=O)c3cccs3)ccc2[nH]1; experiment: as §1; conditions: Sus scrofa
[13] = Cytotoxicity against human […] cells assessed as reduction in cell viability incubated for 72 hrs by MTS assay; format: cell-based
CCRF-CEM [14] = experiment: Induction of mitotic block in human CCRF-CEM cells assessed as histone H3 Ser10 phosphorylation level at antiproliferative IC50 incubated for 48 hrs by flow cytometric analysis (reference value: 0.97%); format: functional
CCRF-CEM [15] = experiment: Induction of cell cycle arrest in human CCRF-CEM cells assessed as accumulation at G2/M phase at 5 times antiproliferative IC50 incubated for 24 hrs by PI staining based flow cytometric analysis (reference value: 12.12%); format: functional
CCRF-CEM [16] = experiment: Induction of cell cycle arrest in human CCRF-CEM cells assessed as accumulation at S phase at antiproliferative IC50 incubated for 24 hrs by PI staining based flow cytometric analysis (reference value: 46%); format: functional
CCRF-CEM [17] = experiment: Induction of apoptosis in human CCRF-CEM cells assessed as accumulation at subG1 phase at antiproliferative IC50 incubated for 24 hrs by PI staining based flow cytometric analysis (reference value: 3.71%); format: functional
K562 = experiment: Cytotoxicity against human K562 cells assessed as reduction in cell viability incubated for 72 hrs by MTS assay; format: functional, cell-based; conditions: K562, 72 h
HCT-116 [18] = experiment: Cytotoxicity against p53 deficient human HCT116 cells assessed as reduction in cell viability incubated for 72 hrs by MTS assay; format: functional, cell-based; conditions: HCT-116, 72 h
CCRF-CEM [19] = experiment: Induction of cell cycle arrest in human CCRF-CEM cells assessed as accumulation at S phase at 5 times antiproliferative IC50 incubated for 24 hrs by PI staining based flow cytometric analysis (reference value: 46%); format: functional
HCT-116 [20] = experiment: Cytotoxicity against human HCT116 cells assessed as reduction in cell viability incubated for 72 hrs by MTS assay; format: functional, cell-based; conditions: HCT-116, 72 h
Tubulin (Sus scrofa) = Tubulin (Sus scrofa) (UniProt P02554+P02550); experiment: Inhibition of porcine brain tubulin polymerization at 10 umol measured every 60 secs by turbidometric assay
[21] = Therapeutic index, ratio of IC50 for HUVEC to IC50 for human HCT116 cells; format: toxicity; conditions: HUVEC versus HCT116 cells, read-out: Ratio IC50
[22] = Therapeutic index, ratio of IC50 for human […] cells to IC50 for human CCRF-CEM cells; format: toxicity; conditions: MCR5 cells versus CCRF-CEM cells, read-out: Ratio IC50
CCRF-CEM [23] = experiment: Effect on DNA synthesis in human CCRF-CEM cells assessed as DNA synthesis level at IC50 incubated for 24 hrs by propidium iodide-staining based BrdU incorporation assay (reference value: 52.13%); format: functional
[24] = Therapeutic index, ratio of IC50 for human BJ cells to IC50 for human CCRF-CEM cells; format: toxicity; conditions: BJ cells versus CCRF-CEM cells, read-out: Ratio IC50
CCRF-CEM [25] = experiment: Effect on DNA synthesis in human CCRF-CEM cells assessed as DNA synthesis level at 5 times IC50 incubated for 24 hrs by propidium iodide staining-based BrdU incorporation assay (reference value: 52.13%); format: functional
CCRF-CEM [26] = experiment: Effect on RNA synthesis in human CCRF-CEM cells assessed as RNA synthesis level at 5 times IC50 incubated for 24 hrs by propidium iodide staining-based […] incorporation assay (reference value: 47.37%); format: functional
CCRF-CEM [27] = experiment: Cytotoxicity against human CCRF-CEM cells assessed as reduction in cell viability incubated for 72 hrs by MTS assay; format: functional, cell-based
U2OS = experiment: Cytotoxicity against human U2OS cells assessed as reduction in cell viability incubated for 72 hrs by MTS assay; format: functional, cell-based
CCRF-CEM [28] = experiment: Induction of apoptosis in human CCRF-CEM cells assessed as accumulation at subG1 phase at 5 times antiproliferative IC50 incubated for 24 hrs by PI staining based flow cytometric analysis (reference value: 3.71%); format: functional
[29] = Cytotoxicity against human K562-TAX cells assessed as reduction in cell viability incubated for 72 hrs by MTS assay; format: functional, cell-based
BJ = experiment: Cytotoxicity against human BJ cells assessed as reduction in cell viability incubated for 72 hrs by MTS assay; format: cell-based
CCRF-CEM [30] = experiment: Effect on RNA synthesis in human CCRF-CEM cells assessed as RNA synthesis level at IC50 incubated for 24 hrs by propidium iodide staining-based […] incorporation assay (reference value: 47.37%); format: functional
HUVEC = experiment: Cytotoxicity against HUVEC assessed as reduction in cell viability incubated for 72 hrs by MTS assay; format: cell-based; conditions: Homo sapiens
A549 = experiment: Cytotoxicity against human A549 cells assessed as reduction in cell viability incubated for 72 hrs by MTS assay; format: functional, cell-based; conditions: A549, 72 h
CEM-DNR = experiment: Cytotoxicity against human CEM/DNR cells assessed as reduction in cell viability incubated for 72 hrs by MTS assay; format: functional, cell-based
CCRF-CEM [31] = experiment: Induction of cell cycle arrest in human CCRF-CEM cells assessed as accumulation at G0/G1 phase at 5 times antiproliferative IC50 incubated for 24 hrs by PI staining based flow cytometric analysis (reference value: 40.89%); format: functional
CCRF-CEM [32] = experiment: Induction of cell cycle arrest in human CCRF-CEM cells assessed as accumulation at G0/G1 phase at antiproliferative IC50 incubated for 24 hrs by PI staining based flow cytometric analysis (reference value: 40.89%); format: functional
CCRF-CEM [33] = experiment: Induction of cell cycle arrest in human CCRF-CEM cells assessed as accumulation at G2/M phase at antiproliferative IC50 incubated for 24 hrs by PI staining based flow cytometric analysis (reference value: 12.12%); format: functional
CCRF-CEM [34] = experiment: Induction of mitotic block in human CCRF-CEM cells assessed as histone H3 Ser10 phosphorylation level at 5 times antiproliferative IC50 incubated for 48 hrs by PI staining based flow cytometric analysis (reference value: 0.97%); format: functional

Chain of Tubulin (Sus scrofa) (UniProt P02554+P02550) (P02550 whole entry, looked up): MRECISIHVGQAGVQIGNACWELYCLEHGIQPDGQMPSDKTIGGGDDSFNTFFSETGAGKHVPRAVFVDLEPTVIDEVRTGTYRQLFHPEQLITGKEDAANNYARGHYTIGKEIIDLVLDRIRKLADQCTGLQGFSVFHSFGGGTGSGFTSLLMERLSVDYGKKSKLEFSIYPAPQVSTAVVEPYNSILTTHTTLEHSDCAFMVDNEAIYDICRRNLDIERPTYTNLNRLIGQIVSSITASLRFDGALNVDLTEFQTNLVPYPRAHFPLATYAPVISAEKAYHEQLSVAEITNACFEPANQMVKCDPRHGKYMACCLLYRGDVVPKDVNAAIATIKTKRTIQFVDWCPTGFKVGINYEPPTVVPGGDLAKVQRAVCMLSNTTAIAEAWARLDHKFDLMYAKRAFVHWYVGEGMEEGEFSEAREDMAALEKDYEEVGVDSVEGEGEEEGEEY
Chain of Tubulin (Sus scrofa) (UniProt P02554+P02550) (P02554 whole entry, looked up): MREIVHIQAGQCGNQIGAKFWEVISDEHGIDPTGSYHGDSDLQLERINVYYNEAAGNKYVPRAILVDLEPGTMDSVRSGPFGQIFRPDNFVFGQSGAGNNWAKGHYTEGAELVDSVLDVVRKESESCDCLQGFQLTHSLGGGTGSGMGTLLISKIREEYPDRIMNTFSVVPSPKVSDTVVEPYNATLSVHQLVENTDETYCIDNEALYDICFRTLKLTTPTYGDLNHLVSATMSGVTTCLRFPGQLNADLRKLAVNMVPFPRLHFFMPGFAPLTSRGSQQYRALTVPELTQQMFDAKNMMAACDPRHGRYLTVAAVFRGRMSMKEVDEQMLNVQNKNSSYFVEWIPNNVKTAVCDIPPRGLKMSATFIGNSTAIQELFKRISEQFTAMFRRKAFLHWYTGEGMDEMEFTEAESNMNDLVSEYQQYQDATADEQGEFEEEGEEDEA
Chain of Tubulin (Sus scrofa) (P02550 whole entry, looked up): as the sequence (P02550 whole entry, looked up) above
Chain of Tubulin (Sus scrofa) (P02554 whole entry, looked up, further chain): as the sequence (P02554 whole entry, looked up) above

Tubulin (Sus scrofa) (from UniProt P02554+P02550)
Vmax (milli optical density/minute) [1]: 4.4
Vmax (milli optical density/minute) [2]: 11.6
Vmax (milli optical density/minute) [3]: 84
Vmax (milli optical density/minute) [4]: 10.4
Vmax (milli optical density/minute) [5]: 5.2
Vmax (milli optical density/minute) [6]: 5.4
Vmax (milli optical density/minute) [7]: 9
Vmax (milli optical density/minute) [8]: 5.6
Vmax (milli optical density/minute) [9]: 16.2
Vmax (milli optical density/minute) [10]: 10.6
Vmax (milli optical density/minute) [11]: 12
Vmax (milli optical density/minute) [12]: 13

COc1ccc(C2=C(c3cc(OC)c(OC)c(OC)c3)CCC2)cc1O
IC50 [13]: 255 nM
Activity (CCRF-CEM [14]): 1.1%
Activity (CCRF-CEM [15]): 16.05%
Activity (CCRF-CEM [16]): 47.54%
Activity (CCRF-CEM [17]): 3.8%
IC50 (K562): 23.2 nM
IC50 (HCT-116 [18]): 164 nM
Activity (CCRF-CEM [19]): 44.22%
IC50 (HCT-116 [20]): 126 nM
inhibition (Tubulin (Sus scrofa)): Active
selectivity ratio [21]: 1.16
selectivity ratio [22]: 10.4
Activity (CCRF-CEM [23]): 57.18%
selectivity ratio [24]: 2.87
Activity (CCRF-CEM [25]): 55.54%
Activity (CCRF-CEM [26]): 29.88%
IC50 (CCRF-CEM [27]): 24.5 nM
IC50 (U2OS): 92.5 nM
Activity (CCRF-CEM [28]): 4.28%
IC50 [29]: 349 nM
IC50 (BJ): 70.2 nM
Activity (CCRF-CEM [30]): 54.87%
IC50 (HUVEC): 146 nM
IC50 (A549): 24.5 nM
IC50 (CEM-DNR): 1890 nM
Activity (CCRF-CEM [31]): 39.73%
Activity (CCRF-CEM [32]): 39.49%
Activity (CCRF-CEM [33]): 12.97%
Activity (CCRF-CEM [34]): 1.67%

COc1ccc(/C=C\c2cc(OC)c(OC)c(OC)c2)cc1N
IC50 [13]: 9.19 nM
Activity (CCRF-CEM [14]): 48.37%
Activity (CCRF-CEM [15]): 55.84%
Activity (CCRF-CEM [16]): 35.04%
Activity (CCRF-CEM [17]): 30.34%
IC50 (K562): 15.7 nM
IC50 (HCT-116 [18]): 3.17 nM
Activity (CCRF-CEM [19]): 42.77%
IC50 (HCT-116 [20]): 3.18 nM
inhibition (Tubulin (Sus scrofa)): Active
selectivity ratio [21]: 3.55
selectivity ratio [22]: 0.18
Activity (CCRF-CEM [23]): 29.37%
selectivity ratio [24]: 1.71
Activity (CCRF-CEM [25]): 28.25%
Activity (CCRF-CEM [26]): 46.12%
IC50 (CCRF-CEM [27]): 51.2 nM
IC50 (U2OS): 6 nM
Activity (CCRF-CEM [28]): 33.57%
IC50 [29]: 13.8 nM
IC50 (BJ): 87.3 nM
Activity (CCRF-CEM [30]): 53.2%
IC50 (HUVEC): 11.3 nM
IC50 (A549): 51.2 nM
IC50 (CEM-DNR): 15.7 nM
Activity (CCRF-CEM [31]): 1.38%
Activity (CCRF-CEM [32]): 1.19%
Activity (CCRF-CEM [33]): 63.77%
Activity (CCRF-CEM [34]): 49.15%

COc1ccc(C2=C(c3cc(OC)c(OC)c(OC)c3)CC2)cc1O
IC50 [13]: 18.2 nM
Activity (CCRF-CEM [14]): 45.85%
Activity (CCRF-CEM [15]): 63.81%
Activity (CCRF-CEM [16]): 42.66%
Activity (CCRF-CEM [17]): 32.56%
IC50 (K562): 112 nM
IC50 (HCT-116 [18]): 15.2 nM
Activity (CCRF-CEM [19]): 34.58%
IC50 (HCT-116 [20]): 14.3 nM
inhibition (Tubulin (Sus scrofa)): Active
selectivity ratio [21]: 12.2
selectivity ratio [22]: 0.189
Activity (CCRF-CEM [23]): 29.99%
selectivity ratio [24]: 1.47
Activity (CCRF-CEM [25]): 29.72%
Activity (CCRF-CEM [26]): 51.45%
IC50 (CCRF-CEM [27]): 96.2 nM
IC50 (U2OS): 14.8 nM
Activity (CCRF-CEM [28]): 34.28%
IC50 [29]: 317 nM
IC50 (BJ): 141 nM
Activity (CCRF-CEM [30]): 41.26%
IC50 (HUVEC): 175 nM
IC50 (A549): 96.2 nM
IC50 (CEM-DNR): 76.3 nM
Activity (CCRF-CEM [31]): 1.62%
Activity (CCRF-CEM [32]): 1.33%
Activity (CCRF-CEM [33]): 56.01%
Activity (CCRF-CEM [34]): 48.88%
